Source: patent publication US7196105B2, “Treatment of human multiple myeloma by curcumin” (Research Development Foundation, priority 2002, dated 2007)
“Also recorded” adds a separate entry of the source.

Legend:
Type in all cases: cell-based, human
Bcl-2 = assay: Western blot for NF-κB-regulated gene product Bcl-2 in U266 cells; settings: curcumin 50 μM
Procedure: Sixty micrograms of cytoplasmic extracts were resolved on 10% SDS-PAGE gel, electrotransferred on a nitrocellulose membrane, and probed for the following: IκBα (FIG. 4A); Bcl-2 (FIG. 4B); Bcl-xL (FIG. 4C) and cyclin D1 (FIG. 4D). The same blots were stripped and reprobed with anti-β-actin antibody to show equal protein loading (lower panel in each figure). FIG. 4E: […] U266, MM.1 or RPMI 8226 cells (1×10^7) were treated with curcumin ([…]) in 5 ml of medium for the indicated times. Supernatants were harvested and concentrated approximately 20×, and IL-6 was quantitated by an IL-6 ELISA kit. Values shown were normalized to 1 ml of un-concentrated supernatants. Thirty to fifty micrograms of cytoplasmic protein extracts prepared as described (Chaturvedi et al., 2000) were resolved on 10% SDS-PAGE gel. After electrophoresis, the proteins were electrotransferred to a nitrocellulose membrane, blocked with 5% nonfat milk, and probed with antibodies against either IkBa, phospho-IkBa, Bcl-2, Bcl-xL, or cyclin D1 (1:3000) for 1 h. Thereafter, the blot was washed, exposed to HRP-conjugated secondary antibodies for 1 h, and finally detected by chemiluminescence (ECL, Amersham Pharmacia Biotech., Arlington Heights, Ill.).

NF-κB = assay: Immunocytochemistry for NF-κB in bone marrow CD138+ cells from multiple myeloma patients; settings: patients #5, #9 and #10, 50 μM curcumin, 2 h
Procedure: The cells were fixed on slides by cytospin centrifugation and immuno-stained for NF-κB or STAT3. Red stain indicates specific staining for NF-κB or STAT3, whereas blue stain indicates the relative position of the nuclei in the corresponding view.
Red stain indicates the specific staining for NF-κB or STAT3 as indicated, whereas blue stain indicates the relative position of the nuclei in the corresponding view.
Untreated or treated multiple myeloma cells were plated on a poly-L-lysine-coated glass slide by centrifugation using a Cytospin 4 (Thermoshendon, Pittsburg, Pa.), air-dried for 1 h at room temperature, and fixed with cold acetone. After a brief washing in PBS, slides were blocked with 5% normal goat serum for 1 h and then incubated either with rabbit polyclonal anti-human NF-κB p65 antibody (SC-109; dilution, 1:100) or with anti-human STAT3 antibody (SC-482; dilution, 1:100). After overnight incubation, the slides were washed and then incubated with goat anti-rabbit IgG-Alexa 594 (A-11037; dilution, 1:100) for 1 h and counter-stained for nuclei with Hoechst (50 ng/ml) for 5 min. Stained slides were mounted with mounting medium (Sigma Colo.) and analyzed under an epifluorescence microscope (Labophot-2, Nikon, Tokyo, Japan). […]

U266 cells = assay: Proliferation by thymidine incorporation; settings: U266, 24 h, different concentrations
Procedure: FIG. 6A: U266 cells (5000 cells/0.1 ml) were incubated with different concentrations of curcumin for 24 hours, and cell proliferation assay was performed as described. Results are shown as mean (±s.d.) of percent [^3H}-thymidine incorporation of triplicate cultures compared to untreated control. FIG. 6B: U266 cells (5000 cells/0.1 ml) were incubated with different concentrations of curcumin for 24 hours, and cell viability was determined by MTT method. The results are shown as the mean (±s.d.) percent viability from triplicate cultures. The antiproliferative effects of curcumin were also monitored by the thymidine incorporation method. Five thousand cells in […] medium were cultured in triplicate in 96-well plates in the presence or absence of curcumin for 24 h. Six hours before the completion of experiment, the cells were pulsed with […] ^3H-thymidine, and the uptake of ^3H-thymidine was monitored using a Matrix-9600 b-counter (Packard Instruments, Downers Grove, Ill.).

[1] = system: multiple myeloma cell lines (U266, RPMI 8226, MM.1, MM.1R); assay: Growth/proliferation of all multiple myeloma cell lines tested (statement for all lines); settings: curcumin 10 μM
Description: The results are shown as the mean (±s. d.) cell count from triplicate cultures.

IKKα and IKKβ = assay: Western blot for total IKKα and IKKβ proteins in U266 cytoplasmic extracts; settings: U266 cells, curcumin 50 μM
Procedure: FIG. 3A: Level of phosphorylated IκBα determined by Western blotting. FIG. 3B: Immunoprecipitated IκB kinase and kinase assay of IκB kinase activity (upper panel) or Western blotting for the analysis of total IKKα and IKKβ proteins in cytoplasmic extracts (lower panel). FIG. 3C: IκB kinase was immunoprecipitated and kinase assay was performed in the absence or presence of the indicated concentrations of curcumin (upper panel). Lower panel indicates the amount of GST-IκBα protein stained with Coomassie Blue in each well in the same dried gel. To determine the total amount of IKK complex in each sample, […] of cytoplasmic protein was resolved on a 7.5% acrylamide gel and then electrotransferred to a nitrocellulose membrane. The membrane was blocked with 5% nonfat milk protein for 1 h and then incubated with either anti-IKKα or anti-IKKβ antibodies for 1 h. The membrane was then washed and treated with HRP-conjugated secondary anti-mouse IgG antibody and finally detected by chemiluminescence (Amersham Pharmacia Biotech, Arlington Heights, Ill.).

## COc1cc(/C=C/C(=O)CC(=O)/C=C/c2ccc(O)c(OC)c2)ccc1O [curcumin, diferuloylmethane]
Bcl-2
  time to lowest level (complete decline) of Bcl-2: ≤ 8 h
NF-κB
  constitutive NF-κB activation (nuclear localization): downregulated NF-κB
U266 cells
  thymidine incorporation: suppressed thymidine incorporation within 24 h in a dose-dependent manner
[1]
  suppression of growth/proliferation: completely suppressed the growth; also recorded: almost complete inhibition of proliferation
IKKα and IKKβ
  protein levels of IκB kinase subunits IKKα and IKKβ: no significant change
